The test system of series [1] is Aspergillus nidulans.
In series [2] the test system is Candida albicans.
Series [3] concerns Staphylococcus aureus.
Series [4] has as its system Escherichia coli.
Series [5] relates to Micrococcus luteus.
For series [6] the following is noted: literature; cited from earlier work.

No end group written: not given here.

Regarding HPLKQYWWRPSI [PW2, HPLKQYWWRPSI], the entries for the “minimum inhibitory concentration (MIC)” value in series [1] and in series [2] were 25 to 50 µg/mL and 12.5 to 25 µg/mL, respectively. Besides, the “concentrations with no antibacterial effect (MIC)” value in series [3], in series [4] and in series [5] was > 200 µg/mL throughout.

Regarding ILPWLWPWWPWRR [indolicidin], in series [6], the cytotoxic property entry is reported as “cytotoxic” and the hemolytic property entry was “hemolytic”.

With VRRFPWWWPFLRR [tritrpticin], in series [6], the cytotoxic property entry was “cytotoxic” and the hemolytic property entry is listed as “hemolytic”.

The record behind these values is US7550558B2, “Antimicrobial peptides and methods for identifying and using such peptides” (priority 2001, dated 2009).
